Measured values published in patent US7462717B2, “C6-and C9-substituted chromeno[4,3-c]isoxazoline derivatives and their use as anti-depressants” (Janssen Pharmaceutica N.V., priority 2002, dated 2008).

How the values were obtained:
hα2A receptor = target: T1, hα2A receptor (Homo sapiens, UniProt P08913); experiment: Radioligand binding experiment for α2A-adrenergic receptor ([3H]-raulwolscine); conditions: membranes of CHO cells transfected with human α2A receptor; [3H]raulwolscine 1 nM
T1 construct: expressed in transfected cells
T1 sequence (P08913 1-465): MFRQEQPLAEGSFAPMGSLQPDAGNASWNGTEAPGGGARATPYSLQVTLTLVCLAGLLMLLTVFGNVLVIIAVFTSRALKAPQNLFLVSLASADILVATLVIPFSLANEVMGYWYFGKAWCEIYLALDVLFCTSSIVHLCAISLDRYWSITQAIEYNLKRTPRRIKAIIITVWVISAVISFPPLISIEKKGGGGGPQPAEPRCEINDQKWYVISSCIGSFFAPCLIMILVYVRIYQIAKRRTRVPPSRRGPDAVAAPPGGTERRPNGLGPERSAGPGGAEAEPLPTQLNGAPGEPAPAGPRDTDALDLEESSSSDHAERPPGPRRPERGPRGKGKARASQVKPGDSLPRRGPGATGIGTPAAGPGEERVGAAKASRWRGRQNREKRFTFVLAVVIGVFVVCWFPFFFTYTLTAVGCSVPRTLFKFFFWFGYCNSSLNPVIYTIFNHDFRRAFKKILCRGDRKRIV
Procedure: (§1) The interaction of the compounds of Formula (I) with hα2-receptors and h5-HT-transporters was assessed in in vitro radioligand binding experiments. In general, a low concentration of a radioligand with a high binding affinity for a particular receptor or transporter is incubated with a sample of a tissue preparation enriched in a particular receptor or transporter or with a preparation of cells expressing cloned human receptors in a buffered medium. During the incubation, the radioligand binds to the receptor or transporter. When equilibrium of binding is reached, the receptor bound radioactivity is separated from the non-bound radioactivity, and the receptor- or transporter-bound activity is counted. The interaction of the test compounds with the receptor is assessed in competition binding experiments. Various concentrations of the test compound are added to the incubation mixture containing the receptor- or transporter preparation and the radioligand. The test compound in proportion to its binding affinity and its concentration inhibits binding of the radioligand. The radioligand used for hα2A, hα2B and hα2C receptor binding was [^3H]-raulwolscine and for the h5-HT transporter was [^3H]paroxetine.
(§2) CHO cells, stabile transfected with human adrenergic-α2A-, -α2B or α2C receptor cDNA, were cultured in Dulbecco's Modified Eagle's Medium (DMEM)/Nutrient mixture Ham's F12 (ratio 1:1) (Gibco, Gent-Belgium) supplemented with 10% heat inactivated fetal calf serum (Life Technologies, Merelbeke-Belgium) and antibiotics (100 IU/ml penicillin G, 100 μg/ml streptomycin sulphate, 110 μg/ml pyruvic acid and 100 μg/ml L-glutamine). One day before collection, cells were induced with 5 mM sodiumbutyrate. Upon 80-90% of confluence, cells were scraped in phosphate buffered saline without Ca^2+ and Mg^2+ and collected by centrifugation at 1500×g for 10 min. The cells were homogenised in Tris-HCl 50 mM using an Ultraturrax homogenizer and centrifuged for 10 min at 23,500×g. The pellet was washed once by resuspension and rehomogenization and the final pellet was resuspended in Tris-HCl, divided in 1 ml aliquots and stored at −70° C.
(§3) Membranes were thawed and re-homogenized in incubation buffer (glycylglycine 25 mM, pH 8.0). In a total volume of 500 μl, 2-10 μg protein was incubated with [^3H]raulwolscine (NET-722) (New England Nuclear, USA) (1 nM final concentration) with or without competitor for 60 min at 25° C. followed by rapid filtration over GF/B filter using a Filtermate 196 harvester (Packard, Meriden, Conn.). Filters were rinsed extensively with ice-cold rinsing buffer (Tris-HCl 50 mM pH 7.4). Filter-bound radioactivity was determined by scintillation counting in a Topcount (Packard, Meriden, Conn.) and results were expressed as counts per minute (cpm). Non-specific binding was determined in the presence of 1 μM oxymetazoline for hα2A- and hα2B-receptors and 1 μM spiroxatrine for hα2C receptors.
(§4) Data from assays in the presence of compound were calculated as a percentage of total binding measured in the absence of test compound. Inhibition curves, plotting percent of total binding versus the log value of the concentration of the test compound, were automatically generated, and sigmoidal inhibition curves were fitted using non-linear regression. The pIC50 values of test compounds were derived from individual curves. All compounds according to Formula (I) produced an inhibition at least at the hα2A site (but often also at the hα2B and hα2C sites) and simultaneously at the 5-HT transporter site of more than 50% (PIC50) at a test concentration ranging between 10^−6 M and 10^−9 M in a concentration-dependent manner.

hα2B receptor = target: T2, hα2B receptor (Homo sapiens, UniProt P18089); experiment: Radioligand binding experiment for α2B-adrenergic receptor ([3H]-raulwolscine); conditions: membranes of CHO cells transfected with human α2B receptor; [3H]raulwolscine 1 nM
T2 construct: expressed in transfected cells
T2 sequence (P18089 1-450): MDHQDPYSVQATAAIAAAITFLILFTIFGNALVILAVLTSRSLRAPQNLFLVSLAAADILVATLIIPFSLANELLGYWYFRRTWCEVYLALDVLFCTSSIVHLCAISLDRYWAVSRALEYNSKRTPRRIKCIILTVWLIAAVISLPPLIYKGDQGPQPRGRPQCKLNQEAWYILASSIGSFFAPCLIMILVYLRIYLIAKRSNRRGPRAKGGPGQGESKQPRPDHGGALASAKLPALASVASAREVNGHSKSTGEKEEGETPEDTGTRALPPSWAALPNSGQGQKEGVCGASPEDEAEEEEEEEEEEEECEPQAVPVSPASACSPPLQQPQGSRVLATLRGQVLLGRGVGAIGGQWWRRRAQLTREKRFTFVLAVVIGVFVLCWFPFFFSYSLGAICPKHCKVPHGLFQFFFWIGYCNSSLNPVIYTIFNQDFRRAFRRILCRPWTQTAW
Procedure: as §1, §2, §3, §4

hα2C receptor = target: T3, hα2C receptor (Homo sapiens, UniProt P18825); experiment: Radioligand binding experiment for α2C-adrenergic receptor ([3H]-raulwolscine); conditions: membranes of CHO cells transfected with human α2C receptor; [3H]raulwolscine 1 nM
T3 construct: expressed in transfected cells
T3 sequence (P18825 1-462): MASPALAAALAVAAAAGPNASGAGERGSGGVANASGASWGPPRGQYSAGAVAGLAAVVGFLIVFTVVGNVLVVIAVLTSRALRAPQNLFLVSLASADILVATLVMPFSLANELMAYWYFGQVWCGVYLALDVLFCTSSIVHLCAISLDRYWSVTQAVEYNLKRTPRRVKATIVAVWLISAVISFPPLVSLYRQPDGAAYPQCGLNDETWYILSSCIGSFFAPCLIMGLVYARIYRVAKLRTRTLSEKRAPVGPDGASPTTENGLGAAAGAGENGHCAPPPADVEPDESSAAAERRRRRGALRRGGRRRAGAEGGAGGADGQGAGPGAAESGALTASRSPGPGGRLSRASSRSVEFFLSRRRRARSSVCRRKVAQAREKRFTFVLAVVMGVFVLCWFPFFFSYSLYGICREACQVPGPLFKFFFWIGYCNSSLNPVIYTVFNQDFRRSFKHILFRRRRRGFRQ
Procedure: as §1, §2, §3, §4

h5-HT transporter = target: T4, h5-HT transporter (Homo sapiens, UniProt P31645); experiment: Radioligand binding experiment for 5-HT transporter ([3H]paroxetine); conditions: human platelet membranes; [3H]paroxetine 0.5 nM; read-out: 5-HTT (converted)
T4 construct: Human platelet membranes (Oceanix Biosciences Corporation, Hanover, Md., USA) were thawed; tissue Oceanix Biosciences Corporation; host or cells: human platelet membranes
T4 sequence (P31645 whole entry): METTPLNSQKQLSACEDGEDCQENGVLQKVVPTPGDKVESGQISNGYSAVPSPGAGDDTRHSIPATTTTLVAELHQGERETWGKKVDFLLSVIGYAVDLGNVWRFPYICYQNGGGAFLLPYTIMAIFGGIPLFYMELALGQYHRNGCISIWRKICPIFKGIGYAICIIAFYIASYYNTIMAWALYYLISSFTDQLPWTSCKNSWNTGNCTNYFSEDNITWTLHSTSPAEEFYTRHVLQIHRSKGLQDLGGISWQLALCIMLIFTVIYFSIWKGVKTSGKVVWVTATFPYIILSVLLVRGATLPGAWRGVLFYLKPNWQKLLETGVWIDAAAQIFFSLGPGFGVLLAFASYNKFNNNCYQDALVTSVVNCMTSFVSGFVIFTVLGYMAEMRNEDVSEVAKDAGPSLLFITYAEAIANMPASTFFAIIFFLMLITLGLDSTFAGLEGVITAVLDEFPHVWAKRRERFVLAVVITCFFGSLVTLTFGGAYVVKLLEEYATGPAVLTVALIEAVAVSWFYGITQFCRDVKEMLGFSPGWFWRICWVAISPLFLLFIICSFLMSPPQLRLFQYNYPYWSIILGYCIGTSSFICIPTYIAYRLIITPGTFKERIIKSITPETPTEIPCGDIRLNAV
Procedure: as §1
Human platelet membranes (Oceanix Biosciences Corporation, Hanover, Md., USA) were thawed, diluted in buffer (Tris-HCl 50 mM, 120 mM NaCl and 5 mM KCl) and quickly (max 3 s) homogenised with an Ultraturrax homogenizer. In a total volume of 250 μL, 50-100 μg protein was incubated with [^3H]paroxetine (NET-869) (New England Nuclear, USA) (0.5 nM final concentration) with or without competitor for 60 min at 25° C. Incubation was stopped by rapid filtration of the incubation mixture over GF/B filters, pre-wetted with 0.1% polyethyleneamine, using a Filtermate 196 harvester (Packard, Meriden, Conn.). Filters were rinsed extensively with ice-cold buffer and radioactivity on the filters was counted in a Topcount liquid scintillation counter (Packard, Meriden, Conn.). Data were expressed as cpm. Imipramine (at 1 μM final concentration) was used to determine the non-specific binding.
as §4

| IC50 (hα2A receptor) [nM] | IC50 (hα2B receptor) [nM] | IC50 (hα2C receptor) [nM] | IC50 (h5-HT transporter) [nM] | SMILES |
| --- | --- | --- | --- | --- |
| 25.1 | 31.6 | 25.1 | 50.1 | COc1cc2c(c(I)c1OC)OCC1C2=NOC1CN1CCN(CC(C)=Cc2ccc(F)cc2)CC1 (stereo not shown) [Compound 18] |
| 2 | 5.01 | 1.26 | 158 | COC(=O)c1c(OC)c(OC)cc2c1OCC1C2=NOC1CN1CCN(C/C(C)=C/c2ccccc2)CC1 (single isomer, unassigned) [Compound 5] |
| 2 | 1 | 2.51 | 251 | COc1cccc2c1C1=NOC(CN3CCN(CC(C)=Cc4ccccc4)CC3)C1CO2 (stereo not shown) [Compound 8] |
| 3.16 | 2.51 | 3.16 | 50.1 | CC(=Cc1ccccc1)CN1CCN(CC2ON=C3c4cccc(OCCO)c4OCC32)CC1 (stereo not shown) [Compound 11] |
| 126 | 6.31 | 3.98 | 126 | COCC(=O)OCCOc1cccc2c1OCC1C2=NOC1CN1CCN(CC(C)=Cc2ccccc2)CC1 (stereo not shown) [Compound 12] |
| 10 | 20 | 15.8 | 126 | COc1cc2c(c(C#N)c1OC)OCC1C2=NOC1CN1CCN(CC(C)=Cc2ccc(F)cc2)CC1 (stereo not shown) [Compound 19] |
| 7.94 | 1.26 | 2 | 50.1 | C/C(=C\c1ccccc1)CN1CCN(C[C@@H]2ON=C3c4cccc(O)c4OC[C@H]32)CC1 (relative stereo) [Compound 7, 3-[4-(2-methyl-3-phenyl-allyl)-piperazin-1-ylmethyl]-3a,4-dihydro-3H-chromeno[4,3-c]isoxazol-6-ol] |
